Molecular target: T1, human GR (Homo sapiens, UniProt P04150)
T1 construct: naturally expresses the human GR; endogenous in cells
T1 sequence (P04150 1-777): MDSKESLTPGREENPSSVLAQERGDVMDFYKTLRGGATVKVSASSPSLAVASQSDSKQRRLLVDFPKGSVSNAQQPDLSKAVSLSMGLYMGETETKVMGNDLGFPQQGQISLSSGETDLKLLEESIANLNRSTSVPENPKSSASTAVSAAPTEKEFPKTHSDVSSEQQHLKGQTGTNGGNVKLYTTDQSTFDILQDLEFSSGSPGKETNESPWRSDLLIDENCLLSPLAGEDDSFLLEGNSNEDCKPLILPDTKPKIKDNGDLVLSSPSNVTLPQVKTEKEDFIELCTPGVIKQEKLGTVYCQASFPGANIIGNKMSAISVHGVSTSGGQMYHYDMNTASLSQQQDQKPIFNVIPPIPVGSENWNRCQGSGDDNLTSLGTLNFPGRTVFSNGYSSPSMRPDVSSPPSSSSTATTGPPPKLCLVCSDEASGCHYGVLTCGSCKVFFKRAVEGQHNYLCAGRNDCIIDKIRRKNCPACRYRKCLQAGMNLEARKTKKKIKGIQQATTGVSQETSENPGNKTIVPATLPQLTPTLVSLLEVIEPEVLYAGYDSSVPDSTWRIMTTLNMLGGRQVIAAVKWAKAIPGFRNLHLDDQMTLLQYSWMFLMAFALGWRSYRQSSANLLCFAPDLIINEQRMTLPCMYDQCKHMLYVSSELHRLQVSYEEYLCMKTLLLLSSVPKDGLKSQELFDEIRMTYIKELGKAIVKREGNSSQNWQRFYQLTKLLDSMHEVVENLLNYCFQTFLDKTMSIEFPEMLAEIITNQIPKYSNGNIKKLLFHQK
Assay: Transrepression Assay (GITAR), TNFα-β-lactamase reporter in U937 cells
Format: cell-based
Settings: for Emax: U-937, activity repressed by 100 nM dexamethasone set as 100%; for EC50: inflection point (IP), TNFα promoter β-lactamase reporter, PMA/LPS
Text: This assay assesses the ability of test compounds to control transcription from the TNFα-β-lactamase reporter gene in U937 cells, a human myelomonocytic leukemia cell line that naturally expresses the human GR. The assay measures compound dependent-repression of the TNFa promoter linked to a reporter gene.
The human U937 cells that had been stablely transfected with the TNF-α promoter driving β-lactamase are used for this assay. U937 cells contain an endogenous glucocorticoid receptor (GR). Cells are maintained in RPMI 1640 Growth medium (Gibco Cat#11875-093) containing 25 mM HEPES, 10% FBS, 2 mM L-Glutamine, 1 mM Sodium pyruvate, 25 μg/ml Gentamicin (Gibco Cat#15710-064), 1:1000 2-Mercaptoethanol (Gibco Cat#21985-023) and 0.8 mg/ml G418 (Gibco Cat#10131-027). The density of the cells in the flask needs to be about 1×106-3×10^6/ml at the time of harvest. Usually, the cells are split to 1.2˜1.4×10^5/ml (1:10) 3 days prior to the assay. 50,000 cells/well are plated in 96 well black-walled plates the day of assay. Test compounds are added 10 μL/well, and cells are incubated at 37° C. for 30˜45 min. For assaying compounds, first dilute 1:10 in DMSO to make 1 mM, then further dilute 1:100 in medium to make 10× stock prior to adding to the cells. Add 50 ng/ml PMA (Sigma, cat# P8139) 10 μL/well to a final concentration 5 ng/ml, and 1 μg/ml LPS (Sigma, cat# L4130) 10 μL/well to a final concentration 100 ng/ml. Incubate cells at 37° C. overnight for ˜18 hr. PMA is stored frozen as 100 μg/ml stock in DMSO. Dilute 1:10 in DMSO for a working stock of 10 μg/ml and store at −20 C. For assaying, dilute the 10 μg/ml working stock 1:200 in medium to make a 10× solution (50 ng/ml). Store frozen LPS at 1 mg/ml in PBS, dilute 1:1000 in medium to make 10× (1 μg/ml) for the assay. Add 6× loading buffer (CCF2-AM) 20 μL/well, and incubate at room temperature for 70˜90 min. […] The activity repressed by 100 nM dexamethasone alone is set as 100% activity.

Emax [%] | EC50 [nM] | SMILES
89.9 | 21.4 | C[C@]12Cc3cnn(-c4ccc(F)cc4)c3C=C1CC[C@@]2(CO)CC(O)c1cccc(Cl)c1 (stereo partly drawn) [Example 8, 1-(3-chlorophenyl)-2-[(4αS,5R)-1-(4-fluorophenyl)-5-(hydroxymethyl)-4α-methyl-1,4,4α,5,6,7-hexahydrocyclopenta[f]indazol-5-yl]ethanol]
102 | 0.6 | C[C@]12Cc3cnn(-c4ccc(F)cc4)c3C=C1CC[C@@]2(CO)CC(O)c1cc(F)cc(F)c1 (stereo partly drawn) [Example 9, 1-(3,5-difluorophenyl)-2-[(4αS,5R)-1-(4-fluorophenyl)-5-(hydroxymethyl)-4α-methyl-1,4,4α,5,6,7-hexahydrocyclopenta[f]indazol-5-yl]ethanol]
84.6 | 241 | C[C@]12Cc3cnn(-c4ccc(F)cc4)c3C=C1CC[C@@]2(CO)CC1OC(=O)c2ccccc21 (stereo partly drawn) [Example 11, 3-{[(4αS,5R)-1-(4-fluorophenyl)-5-(hydroxymethyl)-4α-methyl-1,4,4α,5,6,7,7a,8-octahydrocyclopenta[f]indazol-5-yl]methyl}-2-benzofuran-1(3H)-one]
85.4 | 21.4 | Cc1ccc(C(O)C[C@]2(CO)CCC3=Cc4c(cnn4-c4ccc(F)cc4)C[C@@]32C)nc1 (stereo partly drawn) [Example 16, 2-[(4αS,5R)-1-(4-fluorophenyl)-5-(hydroxymethyl)-4α-methyl-1,4,4α,5,6,7-hexahydrocyclopenta[f]indazol-5-yl]-1-(5-methylpyridin-2-yl)ethanol]

From patent US20120095055A1, “HEXAHYDROCYCLOPENTYL[f]INDAZOLE 5-HYDROXYMETHYL ETHANOLS AND DERIVATIVES THEREOF AS SELECTIVE GLUCOCORTICOID RECEPTOR MODULATORS” (Merck Sharp & Dohme, Corp., priority 2009, published 2012)
